Six molecules from the supplement of paper PMC11061612 can be followed below.

The structures appear in SMILES notation.

Holding throughout (assay): combination Emax (second highest fraction inhibited in the dose matrix, 72 h); higher = more inhibition; extreme values may be limits of the assay
Experiment [1] has as its system NCI-H1341 (Small Cell Lung Carcinoma). The method in brief: (§1)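 After 24 hours at 37°C and 5% CO2 in 1536-well plates, cells in DMEM/F12 or RPMI plus 10% FBS received two-drug dose matrices for 72 hours. Viability came from CellTiter-Glo 2.0 luminescence and was scaled as inhibition, anchored at 0 by vehicle wells and at 1 by blank wells. Combination Emax is taken as the second-highest inhibition in the matrix, and Bliss excess as the observed combination effect less EA + EB − EA·EB, with EA and EB the single-agent effects.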

Experiment [2] deals with SiHa (Cervical Carcinoma). The method in brief:
as §1

The test system of experiment [3] is P30-OHK (B-Lymphoblastic Leukemia). The method, boiled down: as §1
Experiment [4] has as its system CL-11 (Colorectal Carcinoma). The method, boiled down:
as §1

Experiment [5] deals with C-33-A (Cervical Carcinoma). The method in brief:
as §1

Experiment [6] relates to RCC-JW (Kidney Carcinoma). The method, boiled down: as §1
The test system of the next experiment is IST-MEL1 (Melanoma). The method, boiled down: as §1
A further experiment concerns NCI-H2373 (Mesothelioma). The method in brief:
as §1

The test system of experiment [7] is SKG-IIIa (Cervical Carcinoma). The method, boiled down:
as §1

The test system of experiment [8] is IA-LM (Non-Small Cell Lung Carcinoma). The method in brief: as §1
Another experiment deals with AM-38 (Glioblastoma). The method in brief: as §1
In experiment [9] the test system is COR-L88 (Small Cell Lung Carcinoma). The method in brief:
as §1

Experiment [10] deals with SUP-M2 (T-Cell Non-Hodgkin's Lymphoma). The method, boiled down: as §1
The test system of another experiment is ES6 (Ewing's Sarcoma). The method, boiled down: as §1
Experiment [11] deals with LCLC-103H (Non-Small Cell Lung Carcinoma). The method, boiled down:
as §1

The test system of the next experiment is GAK (Melanoma). The method, boiled down:
as §1

The test system of experiment [12] is SAT (Head and Neck Carcinoma). The method in brief: as §1
For experiment [13], the system named is LS-1034 (Colorectal Carcinoma). The method, boiled down: as §1
Experiment [14] concerns NCI-H1876 (Small Cell Lung Carcinoma). The method in brief:
as §1

Experiment [15] concerns NCI-H596 (Other Solid Carcinomas). The method in brief:
as §1

Turning to `COc1nnc2ccc(N3CCC(c4ccc(OCCN5CCN(C)C(=O)[C@H]5C)cc4)CC3)nn12` [AZD5153] + CC1(C)CCC(CN2CCN(c3ccc(C(=O)NS(=O)(=O)c4ccc(NCC5CCOCC5)c([N+](=O)[O-])c4)c(Oc4cnc5[nH]ccc5c4)c3)CC2)=C(c2ccc(Cl)cc2)C1 [Venetoclax] (first compound max 1 µM, 7x7, partner max 1 µM), the “combination Emax” value was 0.688 in experiment [1]; 0.505 in experiment [2]; 1 in experiment [3]; 0.677 in [4]; 0.379 in experiment [5]; 0.3 in experiment [6]. For the same molecule, the “combination Emax” value turned out to be 0.14 with IST-MEL1 (Melanoma); 0.39 in the experiment with NCI-H2373 (Mesothelioma); 0.42 in experiment [7]; 0.495 in [8]; 0.232 in the experiment on AM-38 (Glioblastoma); 0.348 in [9]. In addition, the “combination Emax” value in experiment [10] was 0.965; in the experiment on ES6 (Ewing's Sarcoma), 0.292; in experiment [11], 0.376; in the experiment on GAK (Melanoma) it was 0.478; in experiment [12], 0.723; in [13], 0.538. Besides, the entries for the “combination Emax” value in experiment [14] and in experiment [15] were 0.3 and 0.751, respectively.
Turning to `COc1nnc2ccc(N3CCC(c4ccc(OCCN5CCN(C)C(=O)[C@H]5C)cc4)CC3)nn12` [AZD5153] + CCN(CCO)CCCOc1ccc2c(Nc3cc(CC(=O)Nc4cccc(F)c4)[nH]n3)ncnc2c1 [AZD2811] (first compound max 1 µM, 7x7, partner max 1 µM), the “combination Emax” value in experiment [1] was 0.659; in experiment [2], 0.571; in [3], 1; in [4], 0.677; in experiment [5] it was 0.476; in [6], 0.3. Further, the “combination Emax” value stood at 0.289 in the experiment with IST-MEL1 (Melanoma); 0.41 with NCI-H2373 (Mesothelioma); 0.495 in [7]; 0.401 in experiment [8]; 0.433 in the experiment on AM-38 (Glioblastoma); 0.237 in experiment [9]. Moreover, the “combination Emax” value in [10] came out at 0.994; in the experiment on ES6 (Ewing's Sarcoma), 0.43; in [11], 0.511; with GAK (Melanoma), 0.44; in [12], 0.775; in experiment [13], 0.535. In addition, the “combination Emax” value in experiment [14] turned out to be 0.708; in experiment [15] it was 0.744.
As for `COc1nnc2ccc(N3CCC(c4ccc(OCCN5CCN(C)C(=O)[C@H]5C)cc4)CC3)nn12` [AZD5153] + C[C@@H]1COCCN1C2=NC(=NC(=C2)C3(CC3)[S@](=N)(=O)C)C4=C5C=CNC5=NC=C4 [AZD6738] (first compound max 1 µM, 7x7, partner max 10 µM), the “combination Emax” value in experiment [1] came to 0.955; in experiment [2], 0.639; in experiment [3] it was 1; in experiment [4], 0.833; in experiment [5], 0.958; in [6], 0.527. The “combination Emax” value in the experiment on IST-MEL1 (Melanoma) is 0.789; in the experiment on NCI-H2373 (Mesothelioma), 0.565; in [7], 0.537; in [8], 0.443; in the experiment on AM-38 (Glioblastoma) it was 0.823; in experiment [9], 0.548. For the same molecule, the “combination Emax” value in experiment [10] came to 1; in the experiment on ES6 (Ewing's Sarcoma) it was 0.585; in experiment [11], 0.492; with GAK (Melanoma), 0.605; in experiment [12] it was 0.804; in experiment [13] it was 0.758. The entries for the “combination Emax” value in [14] and in experiment [15] were 0.887 and 0.79, respectively.
Regarding `COc1nnc2ccc(N3CCC(c4ccc(OCCN5CCN(C)C(=O)[C@H]5C)cc4)CC3)nn12` [AZD5153] + Cc1c2c(nn1C)CSCc1cc(n(C)n1)CSc1cc(c3ccccc3c1)OCCCc1c(C(=O)O)n(C)c3c-2c(Cl)ccc13 [AZD5991] (first compound max 1 µM, 7x7, partner max 1 µM), the “combination Emax” value in experiment [1] came to 0.897; in experiment [2] it was 0.666; in experiment [3], 1; in experiment [4] it was 0.768; in experiment [5], 0.644; in [6], 0.3. The “combination Emax” value worked out at 0.242 with IST-MEL1 (Melanoma); 0.381 in the experiment on NCI-H2373 (Mesothelioma); 0.471 in experiment [7]; 0.483 in experiment [8]; 0.295 in the experiment on AM-38 (Glioblastoma); 0.807 in [9]. The “combination Emax” value in experiment [10] was determined as 1; in the experiment on ES6 (Ewing's Sarcoma), 0.45; in experiment [11] it was 0.414; in the experiment on GAK (Melanoma), 0.836; in [12], 0.914; in experiment [13], 0.491. For the same molecule, the results for the “combination Emax” value in experiment [14] and in experiment [15] were 0.949 and 0.79, respectively.
For `COc1nnc2ccc(N3CCC(c4ccc(OCCN5CCN(C)C(=O)[C@H]5C)cc4)CC3)nn12` [AZD5153] + Cn1cnc2c(F)c(Nc3ccc(Br)cc3Cl)c(C(=O)NOCCO)cc21 [Selumetinib] (first compound max 1 µM, 7x7, partner max 10 µM), the “combination Emax” value in experiment [1] came to 0.559; in [2], 0.628; in experiment [3], 0.999; in experiment [4], 0.967; in [5], 0.573; in experiment [6] it was 0.3. Further, the “combination Emax” value with IST-MEL1 (Melanoma) worked out at 0.389; with NCI-H2373 (Mesothelioma) it was 0.439; in experiment [7], 0.537; in [8], 0.457; with AM-38 (Glioblastoma) it was 0.659; in [9], 0.247. For the same molecule, the “combination Emax” value in experiment [10] was 1; in the experiment on ES6 (Ewing's Sarcoma), 0.297; in experiment [11], 0.454; with GAK (Melanoma), 0.612; in experiment [12], 0.843; in experiment [13], 0.814. For the same molecule, the figures for the “combination Emax” value in experiment [14] and in [15] were 0.23 and 0.725, respectively.
As to `Cc1c2c(nn1C)CSCc1cc(n(C)n1)CSc1cc(c3ccccc3c1)OCCCc1c(C(=O)O)n(C)c3c-2c(Cl)ccc13` [AZD5991] + C1CN(CCC1(C(=O)N[C@@H](CCO)C2=CC=C(C=C2)Cl)N)C3=NC=NC4=C3C=CN4 [Capivasertib] (first compound max 1 µM, 7x7, partner max 3 µM), the “combination Emax” value in experiment [1] was 0.647; in experiment [2], 0.23; in experiment [3], 0.71; in [4], 0.133; in [5], 0.689; in experiment [6], 0.208. The “combination Emax” value is 0.212 in the experiment with IST-MEL1 (Melanoma); 0.42 with NCI-H2373 (Mesothelioma); 0.18 in experiment [7]; 0.15 in experiment [8]; 0.494 in the experiment on AM-38 (Glioblastoma); 0.259 in [9]. The “combination Emax” value came to 1 in experiment [10]; 0.281 in the experiment with ES6 (Ewing's Sarcoma); 0.242 in [11]; 0.179 in the experiment on GAK (Melanoma); 0.738 in [12]; 0.22 in [13]. Moreover, the “combination Emax” value worked out at 0.673 in [14] and 0.318 in experiment [15].
